Assay results as given in ChEMBL document CHEMBL3734684, “Identification and optimisation of a series of tetrahydrobenzotriazoles as metabotropic glutamate receptor 5-selective positive allosteric modulators that improve performance in a preclinical model of cognition” (Bioorg Med Chem Lett, 2015).
Values after ≈ are worked out from the molar mass of the structure shown. Active and inactive are the calls of the source. The rule behind the calls is not given here.

Assays:
[1] = target: T1, Metabotropic glutamate receptor 5 (Homo sapiens, UniProt P41594); experiment: Positive allosteric modification of human recombinant mGlu5 receptor expressed in U2OS cells assessed as Ca2+ flux upto 25 uM relative to glutamate; assay type: functional, cell-based
Target sequence in this assay (P41594 21-1212 limits assumed): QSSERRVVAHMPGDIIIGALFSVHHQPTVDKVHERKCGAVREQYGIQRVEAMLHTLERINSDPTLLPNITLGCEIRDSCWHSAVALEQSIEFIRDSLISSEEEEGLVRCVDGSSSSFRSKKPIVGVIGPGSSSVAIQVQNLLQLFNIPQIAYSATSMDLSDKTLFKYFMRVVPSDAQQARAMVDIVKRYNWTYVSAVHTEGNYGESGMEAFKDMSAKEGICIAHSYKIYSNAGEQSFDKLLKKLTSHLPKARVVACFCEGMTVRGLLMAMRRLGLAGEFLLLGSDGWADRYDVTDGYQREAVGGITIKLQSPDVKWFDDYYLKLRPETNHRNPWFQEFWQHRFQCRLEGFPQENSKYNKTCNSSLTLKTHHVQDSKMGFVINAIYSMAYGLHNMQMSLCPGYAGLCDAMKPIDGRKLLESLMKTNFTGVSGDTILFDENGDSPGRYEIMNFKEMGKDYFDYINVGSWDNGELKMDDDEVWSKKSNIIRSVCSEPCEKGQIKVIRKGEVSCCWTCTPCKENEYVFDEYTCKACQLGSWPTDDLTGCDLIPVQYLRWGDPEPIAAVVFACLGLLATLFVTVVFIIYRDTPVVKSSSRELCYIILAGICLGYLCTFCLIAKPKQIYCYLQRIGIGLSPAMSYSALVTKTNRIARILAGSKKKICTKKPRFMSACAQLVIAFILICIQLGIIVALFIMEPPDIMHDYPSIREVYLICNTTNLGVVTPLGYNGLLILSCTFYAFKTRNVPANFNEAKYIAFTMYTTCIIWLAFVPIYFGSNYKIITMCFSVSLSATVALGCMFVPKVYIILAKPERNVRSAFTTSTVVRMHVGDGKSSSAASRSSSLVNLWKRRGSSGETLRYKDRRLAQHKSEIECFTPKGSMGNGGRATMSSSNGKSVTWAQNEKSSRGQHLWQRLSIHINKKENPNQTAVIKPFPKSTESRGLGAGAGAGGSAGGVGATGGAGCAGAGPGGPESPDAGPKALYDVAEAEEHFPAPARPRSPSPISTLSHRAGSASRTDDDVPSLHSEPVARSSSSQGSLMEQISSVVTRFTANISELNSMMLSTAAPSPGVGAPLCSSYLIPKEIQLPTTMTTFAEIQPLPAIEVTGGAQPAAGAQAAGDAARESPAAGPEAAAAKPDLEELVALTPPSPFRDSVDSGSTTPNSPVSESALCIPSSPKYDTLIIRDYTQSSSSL

[2] = target: T1, Metabotropic glutamate receptor 5; experiment: Positive allosteric modification of human recombinant mGlu5 receptor expressed in U2OS cells assessed as potentiation of glutamate-induced Ca2+ flux in presence of EC20 glutamate; assay type: functional, cell-based
Target sequence in this assay (P41594 whole entry): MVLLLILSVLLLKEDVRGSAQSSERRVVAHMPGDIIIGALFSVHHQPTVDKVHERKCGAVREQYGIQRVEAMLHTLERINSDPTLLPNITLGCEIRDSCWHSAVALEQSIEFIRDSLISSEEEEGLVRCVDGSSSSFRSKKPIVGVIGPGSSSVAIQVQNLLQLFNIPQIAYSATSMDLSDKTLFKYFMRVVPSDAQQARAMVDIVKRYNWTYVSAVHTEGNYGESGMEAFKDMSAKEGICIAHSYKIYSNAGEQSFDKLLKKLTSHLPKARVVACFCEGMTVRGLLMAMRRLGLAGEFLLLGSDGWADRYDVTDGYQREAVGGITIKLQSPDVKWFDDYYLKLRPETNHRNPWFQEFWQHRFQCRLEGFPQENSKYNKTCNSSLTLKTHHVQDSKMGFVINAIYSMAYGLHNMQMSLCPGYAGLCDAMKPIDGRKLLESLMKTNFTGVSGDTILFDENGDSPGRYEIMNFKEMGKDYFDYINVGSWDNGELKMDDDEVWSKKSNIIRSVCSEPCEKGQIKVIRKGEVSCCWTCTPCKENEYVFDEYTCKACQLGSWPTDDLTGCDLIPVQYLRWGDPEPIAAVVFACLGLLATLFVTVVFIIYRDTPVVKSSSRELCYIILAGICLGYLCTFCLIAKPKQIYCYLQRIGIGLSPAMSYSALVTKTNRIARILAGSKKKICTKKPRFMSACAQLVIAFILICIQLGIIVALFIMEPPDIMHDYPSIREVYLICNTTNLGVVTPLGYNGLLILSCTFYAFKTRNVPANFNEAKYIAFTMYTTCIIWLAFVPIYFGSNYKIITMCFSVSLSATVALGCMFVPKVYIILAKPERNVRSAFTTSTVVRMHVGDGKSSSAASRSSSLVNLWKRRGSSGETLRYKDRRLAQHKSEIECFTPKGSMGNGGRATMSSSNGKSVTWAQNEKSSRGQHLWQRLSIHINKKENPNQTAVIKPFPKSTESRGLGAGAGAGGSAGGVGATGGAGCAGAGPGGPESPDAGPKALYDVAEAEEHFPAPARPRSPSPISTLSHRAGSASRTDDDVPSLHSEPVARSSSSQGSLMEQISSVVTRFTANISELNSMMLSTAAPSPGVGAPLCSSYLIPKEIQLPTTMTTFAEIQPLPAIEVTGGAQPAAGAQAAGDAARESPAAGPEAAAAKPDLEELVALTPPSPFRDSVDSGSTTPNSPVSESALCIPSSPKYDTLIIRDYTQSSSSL

[3] = target: Metabotropic glutamate receptor 5 (Rattus norvegicus) (UniProt P31424); experiment: Positive allosteric modification of mGlu5 receptor in rat cortical astrocytes assessed as maximal leftward shift in the EC50 of glutamate induced response upto 25 uM; assay type: cell-based
[4] = Intrinsic clearance in rat liver microsomes at 3 uM; assay type: ADME; conditions: read-out: CLH
[5] = Fraction unbound in rat brain; assay type: ADME, tissue-based
[6] = Kinetic solubility of compound in phosphate buffer saline at pH 7.4; assay type: physicochemical; conditions: for solubility kinetic: phosphate buffered saline, read-out: Kinetic_solubility
[7] = Clearance in Sprague-Dawley rat at 0.25 mg/kg, iv; assay type: ADME, organism-based; conditions: in vivo
Homo sapiens [8] = organism: Homo sapiens; experiment: Positive allosteric modification of mGlu receptor (unknown origin)
Homo sapiens [9] = organism: Homo sapiens; experiment: Negative allosteric modification of mGlu receptor (unknown origin)
[10] = Brain to plasma ratio in Sprague-Dawley rat at 3 mg/kg, po; assay type: ADME, organism-based; conditions: brain and plasma, read-out: BPR
MDCK [11] = experiment: Permeability from apical to basolateral side in MDCK cells at 1 uM; assay type: ADME, cell-based, Canis lupus familiaris; conditions: dog
[12] = Oral bioavailability in Sprague-Dawley rat at 3 mg/kg; assay type: ADME, organism-based; conditions: in vivo
[13] = Tmax in Sprague-Dawley rat at 3 mg/kg, po; assay type: ADME, organism-based; conditions: in vivo
[14] = Volume of distribution at steady state in Sprague-Dawley rat at 0.25 mg/kg, iv; assay type: ADME, organism-based; conditions: in vivo, read-out: Vdss
Rattus norvegicus = experiment: Cognitive enhancing effect in po dosed rat measured after 4 hrs by novel object recognition test; assay type: functional; conditions: for minimal effective dose: Rattus norvegicus, po, 4 h, read-out: MED
[15] = Intrinsic clearance in human liver microsomes at 3 uM; assay type: ADME; conditions: read-out: CLH
Homo sapiens [16] = organism: Homo sapiens; experiment: Agonist activity at mGlu receptor (unknown origin)
[17] = Inhibition of CYP450 (unknown origin); assay type: ADME; conditions: human
MDCK [18] = experiment: Efflux ratio of permeability from apical to basolateral side to basolateral to apical side in MDCK cells; assay type: ADME, cell-based, Canis lupus familiaris; conditions: dog
[19] = Cmax in Sprague-Dawley rat plasma at 3 mg/kg, po; assay type: ADME, organism-based; design: dose 3 mg/kg, route oral
[20] = Half life in Sprague-Dawley rat at 3 mg/kg, po; assay type: ADME, organism-based; conditions: in vivo
[21] = Clearance in Sprague-Dawley rat at 0.5 mg/kg, iv; assay type: ADME, organism-based; conditions: in vivo
[22] = Volume of distribution at steady state in Sprague-Dawley rat at 0.5 mg/kg, iv; assay type: ADME, organism-based; conditions: in vivo, read-out: Vdss
[23] = target: Voltage-gated inwardly rectifying potassium channel KCNH2 (Homo sapiens, UniProt Q12809); experiment: Inhibition of human ERG
Voltage-gated inwardly rectifying potassium channel KCNH2, sequence (Q12809 whole entry): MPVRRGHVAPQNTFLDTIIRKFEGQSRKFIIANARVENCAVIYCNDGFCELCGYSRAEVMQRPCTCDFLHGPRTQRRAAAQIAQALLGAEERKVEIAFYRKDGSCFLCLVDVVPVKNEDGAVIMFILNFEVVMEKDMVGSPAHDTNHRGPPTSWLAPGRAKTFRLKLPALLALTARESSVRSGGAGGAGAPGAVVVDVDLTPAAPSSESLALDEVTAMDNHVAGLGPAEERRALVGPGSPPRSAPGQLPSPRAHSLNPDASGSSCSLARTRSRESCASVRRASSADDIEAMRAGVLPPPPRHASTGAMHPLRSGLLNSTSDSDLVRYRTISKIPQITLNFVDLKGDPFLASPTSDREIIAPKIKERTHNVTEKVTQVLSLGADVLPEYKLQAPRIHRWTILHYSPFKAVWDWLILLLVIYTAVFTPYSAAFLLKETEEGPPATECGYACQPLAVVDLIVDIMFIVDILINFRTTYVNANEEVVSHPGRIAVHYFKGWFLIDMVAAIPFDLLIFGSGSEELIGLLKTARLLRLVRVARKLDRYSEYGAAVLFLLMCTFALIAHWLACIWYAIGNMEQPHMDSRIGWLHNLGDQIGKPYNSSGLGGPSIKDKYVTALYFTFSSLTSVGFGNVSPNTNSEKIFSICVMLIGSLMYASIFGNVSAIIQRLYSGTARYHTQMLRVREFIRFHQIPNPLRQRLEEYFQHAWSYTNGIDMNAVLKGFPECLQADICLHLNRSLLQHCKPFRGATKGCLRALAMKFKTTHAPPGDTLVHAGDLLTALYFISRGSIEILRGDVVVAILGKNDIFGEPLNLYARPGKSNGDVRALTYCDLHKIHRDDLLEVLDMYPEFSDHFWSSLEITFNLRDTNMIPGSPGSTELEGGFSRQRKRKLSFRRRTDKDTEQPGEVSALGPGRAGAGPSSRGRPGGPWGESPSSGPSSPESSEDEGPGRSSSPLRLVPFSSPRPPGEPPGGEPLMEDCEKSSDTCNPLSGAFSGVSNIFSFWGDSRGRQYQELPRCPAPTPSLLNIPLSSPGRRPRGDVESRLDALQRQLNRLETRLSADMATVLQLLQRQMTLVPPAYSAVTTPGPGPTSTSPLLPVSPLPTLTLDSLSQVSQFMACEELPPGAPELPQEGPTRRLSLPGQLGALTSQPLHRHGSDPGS

Metabotropic glutamate receptor 5 (Rattus norvegicus), sequence (P31424 21-1203 limits assumed): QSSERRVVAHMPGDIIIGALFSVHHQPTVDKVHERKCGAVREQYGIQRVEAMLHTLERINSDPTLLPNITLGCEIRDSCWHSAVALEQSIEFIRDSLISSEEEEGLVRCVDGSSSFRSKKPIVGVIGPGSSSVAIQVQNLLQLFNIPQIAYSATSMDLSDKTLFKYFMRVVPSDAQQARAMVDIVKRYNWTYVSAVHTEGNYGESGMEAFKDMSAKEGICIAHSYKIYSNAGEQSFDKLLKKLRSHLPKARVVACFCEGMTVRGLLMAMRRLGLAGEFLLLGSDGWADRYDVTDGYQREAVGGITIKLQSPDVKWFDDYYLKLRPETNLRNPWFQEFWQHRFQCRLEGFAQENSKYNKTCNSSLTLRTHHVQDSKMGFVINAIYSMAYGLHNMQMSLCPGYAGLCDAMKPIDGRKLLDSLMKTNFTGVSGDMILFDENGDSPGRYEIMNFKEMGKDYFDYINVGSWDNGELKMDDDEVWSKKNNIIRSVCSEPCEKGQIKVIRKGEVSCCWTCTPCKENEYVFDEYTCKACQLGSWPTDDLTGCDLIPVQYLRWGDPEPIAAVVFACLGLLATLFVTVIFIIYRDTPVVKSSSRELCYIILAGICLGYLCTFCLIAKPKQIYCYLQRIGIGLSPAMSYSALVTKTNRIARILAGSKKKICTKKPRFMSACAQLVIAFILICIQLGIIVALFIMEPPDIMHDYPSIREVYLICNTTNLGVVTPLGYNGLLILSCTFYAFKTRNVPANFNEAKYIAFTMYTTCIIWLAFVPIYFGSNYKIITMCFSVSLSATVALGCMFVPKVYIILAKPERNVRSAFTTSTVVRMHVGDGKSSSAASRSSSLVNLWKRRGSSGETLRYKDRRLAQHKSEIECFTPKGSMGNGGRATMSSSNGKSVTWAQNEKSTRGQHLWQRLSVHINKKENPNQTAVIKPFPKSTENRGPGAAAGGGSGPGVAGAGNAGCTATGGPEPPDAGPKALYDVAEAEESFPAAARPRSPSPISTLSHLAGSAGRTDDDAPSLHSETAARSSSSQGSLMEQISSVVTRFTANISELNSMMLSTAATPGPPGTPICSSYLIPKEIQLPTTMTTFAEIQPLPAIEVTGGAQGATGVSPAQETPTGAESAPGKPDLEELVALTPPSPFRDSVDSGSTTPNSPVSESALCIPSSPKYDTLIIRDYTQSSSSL

## CC(C)(C)n1nnc2c1CCC(c1nc(-c3ccc(C#N)cc3)no1)C2 (stereo not given)
[1]
  %max: 87%
[2]
  EC50: 79.4 nM
[3]
  fold change (FC): 6

## Fc1ccc(-c2noc(C3CCc4c(nnn4C4CCCC4)C3)n2)cc1 (stereo in doubt; 10) [listing 1 of 2 here]
[1]
  %max: 78%
[3]
  fold change (FC): 4

## CC(C)(C)n1nnc2c1CCC(c1noc(-c3ccc(F)cc3)n1)C2 (stereo not given)
[1]
  %max: 85%
[2]
  EC50: 5.01 nM
[3]
  fold change (FC): 5

## Fc1ccc(-c2noc(C3CCc4c(nnn4-c4ccc(F)nc4)C3)n2)cc1 (stereo not given)
[2]
  EC50: > 25100 nM

## CC(C)(C)n1nnc2c1CCC(c1nc(Cc3ccc(F)cc3)no1)C2 (stereo not given)
[1]
  %max: 77%
[4]
  microsomal CLint at 3 µM: 120 µL/min/mg
[2]
  EC50: 20 nM
[3]
  fold change (FC): 7

## Fc1ccc(-c2nc(-c3ccc4c(c3)nnn4C3CCCC3)no2)cc1
[1]
  %max: 51%
[2]
  EC50: 398 nM

## Fc1ccc(-c2noc(C3CCc4c(nnn4-c4ccc(F)cc4)C3)n2)cc1 (stereo not given)
[5]
  fraction unbound: 0.003
[1]
  %max: 106%
[6]; buffer
  Kinetic_solubility: Insoluble
[2]
  EC50: 15.8 nM
[3]
  fold change (FC): 3

## CC(C)(C)Cn1nnc2c1CCC(c1nc(-c3ccc(F)cc3)no1)C2 (stereo not given)
[1]
  %max: 108%
[2]
  EC50: 31.6 nM
[3]
  fold change (FC): 8

## CC(C)(C#N)n1nnc2c1CCC(c1nc(-c3ccc(F)cc3)no1)C2 (stereo not given)
[5]
  fraction unbound: 0.015
[7]
  clearance: 4 mL/min/kg
Homo sapiens [8]
  Activity: inactive
Homo sapiens [9]
  Activity: inactive
[10]
  Kp: 3.2
MDCK [11]
  permeability: 43 ×10⁻⁶ cm/s
[12]
  bioavailability: 45%
[1]
  %max: 71%
[4]
  microsomal CLint at 3 µM: 6 µL/min/mg
[13]
  Tmax: 6 h
[14]
  Vd: 2.5 L/kg
Rattus norvegicus
  LED: 0.03 mg/kg
[15]
  microsomal CLint at 3 µM: 9 µL/min/mg
Homo sapiens [16]
  Activity: inactive
[6]
  solubility kinetic: 5.6 µM (≈ 1.97 µg/mL)
[17]
  inhibition (INH): Not Active
[2]
  EC50: 15.8 nM
[3]
  fold change (FC): 3
MDCK [18]
  Ratio: 0.6
[19]
  Cmax: 891 nM
[20]
  half-life: 7 h

## Fc1ccc(-c2noc(C3CCc4c(nnn4C4CCCC4)C3)n2)cc1 (stereo in doubt; 9) [listing 1 of 2 here]
[4]
  microsomal CLint at 3 µM: 146 µL/min/mg
[2]
  EC50: 31.6 nM

## CC(C)n1nnc2c1CCC(c1nc(-c3ccc(F)cc3)no1)C2 (racemic)
[1]
  %max: 98%
[2]
  EC50: 398 nM

## CC(C)(C)n1nnc2c1CCC(c1nc(C3CCCCC3)no1)C2 (racemic)
[1]
  %max: 91%
[2]
  EC50: 200 nM

## Cc1ccc(-c2noc(C3CCc4c(nnn4C(C)(C)C)C3)n2)cn1 (racemic)
[1]
  %max: 67%
[2]
  EC50: 1580 nM

## CC(C)(C)n1nnc2c1CCC(c1nnc(-c3ccc(F)cc3)o1)C2 (racemic)
[1]
  %max: 53%
[2]
  EC50: 3160 nM

## CC(C)(C)n1nnc2c1CCC(c1nc(-c3ccc(F)cc3)no1)C2 (stereo not given)
[5]
  fraction unbound: 0.013
Homo sapiens [8]
  Activity: inactive
Homo sapiens [9]
  Activity: inactive
[10]
  Kp: 2
[21]
  clearance: 11 mL/min/kg
MDCK [11]
  permeability: 42 ×10⁻⁶ cm/s
[12]
  bioavailability: 46%
[1]
  %max: 98%
[4]
  microsomal CLint at 3 µM: 20 µL/min/mg
[13]
  Tmax: 4 h
Rattus norvegicus
  minimal effective dose: 0.3 mg/kg
[15]
  microsomal CLint at 3 µM: 18 µL/min/mg
Homo sapiens [16]
  Activity: inactive
[6]
  solubility kinetic: 6 µM (≈ 2.05 µg/mL)
[17]
  inhibition (INH): Not Active
[2]
  EC50: 5.01 nM
[3]
  fold change (FC): 4
MDCK [18]
  Ratio: 0.8
[19]
  Cmax: 438 nM
[20]
  half-life: 6.5 h
[22]
  Vd: 4.3 L/kg

## Fc1ccc(-c2noc(C3CCc4c(nnn4C4CCCC4)C3)n2)cc1 (stereo in doubt; 10) [listing 2 of 2 here]
[2]
  EC50: 398 nM

## CC1(n2nnc3c2CCC(c2nc(-c4ccc(F)cc4)no2)C3)CCOCC1 (stereo not given)
[1]
  %max: 103%
[2]
  EC50: 10 nM
[3]
  fold change (FC): 7

## CC(C)(C)n1nnc2c1CCC(c1nc(N3CCOCC3)no1)C2 (racemic)
[1]
  %max: 29%
[2]
  EC50: 1260 nM

## CN1CCC(n2nnc3c2CCC(c2nc(-c4ccc(F)cc4)no2)C3)CC1 (racemic)
[1]
  %max: 91%
[2]
  EC50: 3980 nM

## Fc1ccc(-c2noc(C3CCc4c(nnn4C4CCCC4)C3)n2)cc1 (stereo in doubt; 9) [listing 2 of 2 here]
[1]
  %max: 103%
[3]
  fold change (FC): 10

## CC(C)(C)n1nnc2c1CCC(n1cnc(-c3ccc(F)cc3)n1)C2 (stereo not given)
[5]
  fraction unbound: 0.056
[23]
  IC50: 6310 nM
Homo sapiens [8]
  Activity: inactive
Homo sapiens [9]
  Activity: inactive
[10]
  Kp: 1.4
[21]
  clearance: 14 mL/min/kg
MDCK [11]
  permeability: 46 ×10⁻⁶ cm/s
[12]
  bioavailability: 114%
[1]
  %max: 80%
[4]
  microsomal CLint at 3 µM: 20 µL/min/mg
[13]
  Tmax: 2.7 h
Rattus norvegicus
  minimal effective dose: 0.3 mg/kg
[15]
  microsomal CLint at 3 µM: 4 µL/min/mg
Homo sapiens [16]
  Activity: inactive
[6]
  solubility kinetic: > 100 µM
[17]
  inhibition (INH): Not Active
[2]
  EC50: 50.1 nM
[3]
  fold change (FC): 3
MDCK [18]
  Ratio: 0.8
[19]
  Cmax: 1950 nM
[20]
  half-life: 2.9 h
[22]
  Vd: 1.9 L/kg

## Fc1ccc(-c2noc(C3CCc4c(nnn4C4CCOC4)C3)n2)cc1 (stereo not given)
[1]
  %max: 96%
[4]
  microsomal CLint at 3 µM: 22 µL/min/mg
[2]
  EC50: 398 nM
[3]
  fold change (FC): 4

## CN(C)c1ccc(-c2noc(C3CCc4c(nnn4C(C)(C)C)C3)n2)cc1 (racemic)
[1]
  %max: 68%
[2]
  EC50: 1000 nM

## CC(C)Cc1noc(C2CCc3c(nnn3C(C)(C)C)C2)n1 (racemic)
[1]
  %max: 66%
[2]
  EC50: 1000 nM
